Tests used:
[1] = test system: tumor lesions and normal tissue of cancer patients; test: Clinical PET/CT imaging in cancer patients (SUV); format: in vivo, human
Experimental: Diagnostic imaging of more than 100 patients was performed under the conditions of the updated declaration of Helsinki, § 37 (Unproven interventions in clinical practice) and in accordance to the German Pharmaceuticals Law § 13 (2b) for medical reasons using either ^68Ga-FAPI-02 or -04, which was applied intravenously (20 nmol, 122-336 MBq), 10 min, 1 and 3 hours post tracer administration. Variation of injected radiotracer activity is due to the short half-life of ^68Ga and the variable elution efficiencies obtained during the lifetime of the ^68Ge/^68Ga generator. […] The PET/CT scans were performed with a Biograph mCT Flow™ PET/CT-Scanner (Siemens Medical Solution) using the following parameters: slice thickness of 5 mm, increment of 3-4 mm, soft-tissue reconstruction kernel, care dose. Immediately after CT scanning, a whole-body PET was acquired in 3D (matrix 200×200) in FlowMotion™ with 0.7 cm/min. The emission data were corrected for random, scatter and decay. Reconstruction was conducted with an ordered subset expectation maximisation (OSEM) algorithm with 2 iterations/21 subsets and Gauss-filtered to a transaxial resolution of 5 mm at full-width half-maximum (FWHM). Attenuation correction was performed using the low-dose non-enhanced CT data. The quantitative assessment of standardized uptake values (SUV) was done using a region of interest technique.
For the normal tissue of 16 organs, a 2 cm Spheric-VOI was placed in the parenchyma, for tumor lesions a threshold segmented VOI was used to quantify SUVmean/max^3.

[2] = test system: HT-1080-FAP tumor xenografts; test: Dynamic small-animal PET, two-tissue compartment model, HT-1080-FAP xenografts; format: in vivo, mouse; conditions: 68Ga-FAPI-02, HT-1080-FAP
Experimental: For in vivo experiments, 8 week old BALB/c nu/nu mice (Charles River) were subcutaneously inoculated into the right trunk with 5×10^6 with HT-1080-FAP, Capan-2 or SK-LMS-1 cells, respectively. When the size of the tumor reached approximately 1 cm^3, the radiolabeled compound was injected via the tail vein (˜10 MBq for small-animal PET imaging; ˜1 MBq for organ distribution). PET imaging was performed up to 140 min after intravenous injection of 1 MBq of Ga-68 labeled compound per mouse using the Inveon PET small-animal PET scanner (Siemens). Images were reconstructed iteratively using the 3D-OSEM+MAP method and were converted to standardized uptake value (SUV) images. Quantification was done using a ROI technique and expressed as SUV mean. For organ distribution of Lu-177 labeled compound (approx. […] per mouse), the animals (n=3 for each time point) were sacrificed after indicated time points (from 30 min to 24 h). The distributed radioactivity was measured in all dissected organs and in blood using a γ-counter (Cobra Autogamma, Packard). The values are expressed as percentage of injected dose per gram of tissue (% ID/g).
For pharmakokinetic modeling the transport constant K1 and the rate constants k2-k4 were calculated using a two-tissue compartment model implemented in the PMOD software, taking into account the vascular fraction (vB), which is associated with the volume of blood exchanging with tissue in a VOI. The rate constants that describe the compartmental fluxes include k1 (binding to the receptor), k2 (detachment) as well as k3 (internalization) and k4 (efflux) in the tumor tissue. In this model the fractional volume of distribution (DV=K1/k2) is the proportion of the region of interest in which […] is distributed.

HT-1080-FAP cells = test: Efflux experiments in HT-1080-FAP cells; format: cell-based, human; conditions: after 24 h in compound-free medium
human CD26 = human CD26 (Homo sapiens (Human), UniProt P27487); test: Radioligand binding to CD26 expressing cells (HEK-CD26); conditions: 60 min incubation
Experimental: In vitro binding studies were performed using the human tumor cell lines BxPC3, Capan-2, MCF-7 (purchased from Sigma Aldrich Chemie GmbH) and SK-LMS-1 (purchased from ATCC) as well as stably transfected FAP-cell lines HT-1080-FAP, HEK-muFAP and the CD26 expressing cell line HEK-CD26 (obtained from Stefan Bauer, NCT Heidelberg). All cells were cultivated in Dulbecco's modified Eagle's medium (DMEM) containing 10% fetal calf serum at 37° C./5% carbon dioxide. For fluorescence internalization experiments, cells were seeded on coverslips and stained with FAPI-02-Atto488 and DAPI for cell nucleus staining. Images were acquired on a laser scanning confocal microscope using a 63× oil immersion objective.
For radioligand binding studies, cells were seeded in 6-well plates and cultivated for 48 h to a final confluence of approx. 80-90% (1.2-2 mio cells/well). The medium was replaced by 1 mL fresh medium without fetal calf serum. The radiolabeled compound was added to the cell culture and incubated for different time intervals ranging from 10 min to 24 h. Competition experiments were performed by simultaneous exposure to unlabeled (10^−5 M to 10^−9 M) and radiolabeled compound for 60 min. […] Radioactivity was determined in a γ-counter (Cobra II, Packard), normalized to 1 mio cells and calculated as percentage of the applied dose (% ID). […]

[3] = 1 h p.i., intra-individual comparison of 6 patients

Chain of human CD26 (P27487 whole entry): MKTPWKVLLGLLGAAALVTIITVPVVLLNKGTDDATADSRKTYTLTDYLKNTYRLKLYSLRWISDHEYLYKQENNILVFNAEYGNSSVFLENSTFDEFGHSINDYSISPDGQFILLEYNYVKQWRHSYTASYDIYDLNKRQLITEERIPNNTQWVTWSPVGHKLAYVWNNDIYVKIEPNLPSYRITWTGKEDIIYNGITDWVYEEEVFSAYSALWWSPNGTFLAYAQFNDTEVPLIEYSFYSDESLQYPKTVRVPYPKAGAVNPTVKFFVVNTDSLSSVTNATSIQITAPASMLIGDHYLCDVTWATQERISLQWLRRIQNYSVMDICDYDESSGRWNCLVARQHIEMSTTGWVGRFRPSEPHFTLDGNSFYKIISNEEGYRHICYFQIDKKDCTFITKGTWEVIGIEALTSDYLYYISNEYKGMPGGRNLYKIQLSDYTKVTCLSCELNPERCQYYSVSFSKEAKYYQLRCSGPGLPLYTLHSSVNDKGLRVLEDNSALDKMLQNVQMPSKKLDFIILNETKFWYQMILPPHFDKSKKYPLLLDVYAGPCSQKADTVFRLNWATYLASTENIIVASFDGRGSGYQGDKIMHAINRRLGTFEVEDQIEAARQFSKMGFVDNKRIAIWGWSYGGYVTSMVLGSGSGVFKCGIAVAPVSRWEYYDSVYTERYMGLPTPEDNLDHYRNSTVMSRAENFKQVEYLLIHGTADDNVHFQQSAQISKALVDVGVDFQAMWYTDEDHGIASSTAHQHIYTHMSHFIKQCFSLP

## N#C[C@@H]1CCCN1C(=O)CNC(=O)c1ccnc2ccc(OCCCN3CCN(C(=O)CN4CCN(CC(=O)O)CCN(CC(=O)O)CCN(CC(=O)O)CC4)CC3)cc12 [FAPI-02]
[1]; 68Ga labeled, 1 h after i.v. administration, patients
  maximum SUV values in primary tumor, lymph node and bone metastases: ≤ 48.0
[1]; [3]
  background uptake in brain: 0.32
  background uptake in liver: 1.69
  background uptake in oral/pharyngeal mucosa: 2.57
  tumor uptake, average SUV max: 7.37
[1]; from 1 h to 3 h p.i., patients
  decrease of tumor uptake (washout): 75%
[2]; + comp.
  Flux: 0.01 ml/ccm/min
  Vs (ratio of specific binding concentration to total parent at equilibrium): 0.18 ml/ccm
  Vt (total distribution volume): 0.48 ml/ccm
  k1: 0.10 ml/ccm/min
  k2: 0.32 min⁻¹
  k3: 0.04 min⁻¹
  k4: 0.07 min⁻¹
  vB (vascular fraction): 0.04 l/l
[2]; − comp.
  Flux: 0.03 ml/ccm/min
  Vs (ratio of specific binding concentration to total parent at equilibrium): 2.31 ml/ccm
  Vt (total distribution volume): 0.87 ml/ccm
  k1: 0.07 ml/ccm/min
  k2: 0.13 min⁻¹
  k3: 0.1 min⁻¹
  k4: 0.02 min⁻¹
  vB (vascular fraction): 0.04 l/l
HT-1080-FAP cells
  retention of the originally accumulated radioactivity (efflux): 12%
Human CD26
  binding to CD26 expressing cells (% ID): 0.13±0.01%

From patent US20250127937A1, “FAP INHIBITOR” (UNIVERSITÄT HEIDELBERG, priority 2018, published 2025)
